# Results taken from patent publication US7253286B2, “Nitrogen-containing aromatic derivatives” (Eisai Co., Ltd, priority 2000, dated 2007).
# Assays:
# [1] = system: Human Umbilical Vein Endothelial Cells (HUVECs); experiment: Inhibition against invasive tube formation by vascular endothelial cells in response to stimulation by angiogenic factor mixture; assay type: cell-based; set-up: key: the number of tubes formed in the absence of the test substance was designated as +++; scored on the 5-level scale of +++, ++, +, +/−, −; scored on the 5-level scale of +++, ++, +, +/−, −; scored on the 5-level scale of +++, ++, +, +/−, −; − was assigned if absolutely no tubes formed; conditions: HUVEC on fibrin gel, EGF/FGF2/VEGF/HGF/TNF-α mixture, 6th day, MTT staining; for number of tubes formed in the fibrin gel (score) at 0.01 μM: test substance 0.01 μM; for number of tubes formed in the fibrin gel (score) at 0.1 μM: test substance 0.1 μM; for number of tubes formed in the fibrin gel (score) at 1.0 μM: test substance 1.0 μM
# Protocol: Inhibition Against Invasive Tube Formation by Vascular Endothelial Cells in Response to Stimulation by Angiogenic Factor Mixture
# Human Umbilical Vein Endothelial Cells (HUVECs) were isolated according to a reported method (Shinseikagaku Jikken Koza [New Biochemistry Experiment Lectures], “Saibo Baiyo Gijutsu” [Cell Culturing Techniques], p.197–202), and were cultured in a 5% CO2 incubator (37° C.) using EGM-2 medium (purchased from Clonetics Corp.) until the cells reached confluency. After adding 0.4 ml of bovine fibrinogen (purchased from Sigma Co.) to the inner well of a Transwell culturing plate (purchased from Coster Inc.), it was hardened with 0.7 units/ml of thrombin (purchased from Sigma Co.). The HUVECs were recovered using trypsin-EDTA and then suspended in human endothelial serum free medium basal growth medium (hereinafter abbreviated as SFM, purchased from GIBCO BRL), and 0.4 ml of the cell suspension (1.4×10^5 cells) was seeded onto the hardened fibrin gel and cultured for approximately 4 hours in a 5% CO2 incubator (37° C.). After 4 hours, there was added to the outer chamber of the Transwell 1.5 ml of an SFM solution containing a mixture of angiogenic factors {10 ng/ml EGF (purchased from GIBCO BRL), 30 ng/ml FGF2 (purchased from GIBCO BRL), 75 ng/ml VEGF (purchased from Wako Pure Chemical Industries Co., Ltd.), 50 ng/ml HGF (purchased from R&D Co.) and 7.5 ng/ml TNF-α (purchased from Genzyme Corp.) [The concentrations of the angiogenic factors differed slightly according to the HUVEC lot.]} and a diluted test substance, and culturing was carried out in a 5% CO2 incubator (37° C.). On the 2nd and 4th days after adding the test substance, the medium was exchanged with 1.5 ml of freshly prepared SFM solution containing the angiogenic factor mixture and test substance. Upon aspirating off the culture supernatant in the inner well on the 6th day after the initial addition of the test substance, 0.4 ml of a 3.3 mg/ml MTT solution dissolved in PBS (purchased from Sigma Corp.) was added and culturing was performed for approximately 1 hour in a 5% CO2 incubator (37° C.). The number of tubes formed in the fibrin gel stained with MTT was scored based on microscope observation. Specifically, the number of tubes formed in the absence of the test substance was designated as +++, while − was assigned if absolutely no tubes formed. The number of tubes formed in the presence of the test substance was scored on the 5-level scale of +++, ++, +, +/−, − to evaluate the strength of inhibition of the test substance.
# [2] = system: Human Umbilical Vein Endothelial Cells (HUVECs); experiment: Inhibition against sandwich tube formation by vascular endothelial cells in response to stimulation by VEGF; assay type: cell-based; conditions: HUVEC in collagen gel sandwich, stimulation by VEGF (25 ng/ml VEGF and 10 ng/ml EGF), 4th day, total tube length, read-out: IC50 (concentration required for 50% inhibition of tube formation)
# Protocol: Inhibition Against Sandwich Tube Formation by Vascular Endothelial Cells in Response to Stimulation by Angiogenic Factor
# Human Umbilical Vein Endothelial Cells (HUVECS) were isolated by the same method as in Pharmacological Test Example 1, and were cultured in a 5% CO2 incubator (37° C.) using EGM-2 medium (purchased from Clonetics Corp.) until the cells reached confluency.
# An ice-cooled mixture of collagen: 5× RPMI 1640: reconstitution buffer (all purchased from Nitta Gelatin, Inc.) at 7:2:1 was dispensed at 0.4 ml into each well of a 24-well plate, and then stationed for 40 minutes in a 5% CO2 incubator (37° C.) for gelling. The HUVECs were recovered using trypsin-EDTA and then suspended in human endothelial serum free medium (SFM, purchased from GIBCO BRL) containing added angiogenic factors [20 ng/ml FGF2 (purchased from GIBCO BRL) and 10 ng/ml EGF (purchased from GIBCO BRL), or 25 ng/ml VEGF (purchased from Wako Pure Chemical Industries Co., Ltd.) and 10 ng/ml EGF, or 30 ng/ml HGF (purchased from R&D Co.) and 10 ng/ml EGF], and the cell suspension was added at 0.4 ml to each well (with the cell counts differing slightly according to the HUVEC lot), and cultured overnight in a 5% CO2 incubator (37° C.). On the following day, the medium on the upper layer was aspirated off, and then 0.4 ml of an ice-cooled mixture of collagen: 5× RPMI 1640: reconstitution buffer (all purchased from Nitta Gelatin, Inc.) at 7:2:1 was superposed into each well prior to stationing for 4 hours in a 5% CO2 incubator (37° C.) for gelling. After adding 1.5 ml of an SFM solution containing each of the aforementioned angiogenic factors and a diluted test substance onto the upper layer, culturing was performed in a 5% CO2 incubator (37° C.). Upon aspirating off the culture supernatant in each well on the 4th day after addition of the test substance, 0.4 ml of a 3.3 mg/ml MTT solution dissolved in PBS (purchased from Sigma Corp.) was added to each well and culturing was performed for approximately 2 hours in a 5% CO2 incubator (37° C.). The tubes formed in the collagen gel of each well were stained by the MTT, the tube images were loaded into a computer (Macintosh), and the total length of the tubes was determined by image analysis software “MacScope” (purchased from Mitani Corp.). The ratio of the total length of the tubes formed in the well containing the test substance with respect to the total length of the tubes formed in the well containing no test substance was expressed as a percentage, and the concentration of each test substance required for 50% inhibition of tube formation (IC50) was determined from the ratio value.
SMILES,number of tubes formed in the fibrin gel (score) at 0.01 μM [1],number of tubes formed in the fibrin gel (score) at 0.1 μM [1],number of tubes formed in the fibrin gel (score) at 1.0 μM [1],IC50 [2] [nM]
"CCN1CCN(CCCOc2cc3nccc(Oc4ccc(NC(=O)Nc5ccc(OC)cc5)cc4)c3cc2C#N)CC1 [Example 53, N-(4-(6-Cyano-7-(3-(1-(4-ethyl)piperazino)propoxy)-4-quinolyl)oxyphenyl)-N′-(4-methoxyphenyl)urea]",+++,+/−,−,9.9
"O=C(CCCN1CCC(O)CC1)Nc1cc(Oc2ccc3c(ccn3C(=O)Nc3ccccc3)c2)ccn1 [Example 189, N1-Phenyl-5-[(2-{[4-(4-hydroxypiperidino)butanoyl]amino}-4-pyridyl)oxy]-1H-1-indolecarboxamide]",+/−,−,−,0.3
"CCN(CC)CCCOc1cc2nccc(Oc3ccc(NC(=O)Nc4ccccc4)cc3)c2cc1C#N [Example 75, N-(4-(6-Cyano-7-(3-(diethylamino)propoxy)-4-quinolyloxy)phenyl)-N′-phenylurea]",+++,+/−,−,1.4
"CCN(CC)CCOc1ccc(-c2cc3c(Oc4ccc(NC(=O)NC5CC5)c(Cl)c4)ncnc3[nH]2)cc1 [Example 153, 1-(2-Chloro-4-{6-[4-(2-diethylaminoethoxy)-phenyl]-7H-pyrrolo[2,3-d]pyrimidin-4-yloxy}phenyl)-3-cyclopropylurea]",+/−,−,−,0.02
"CN1CCC(COc2cc3nccc(Oc4ccc(NC(=O)NC5CC5)c(Cl)c4)c3cc2C#N)CC1 [Example 422, N-(2-Chloro-4-((6-cyano-7-((1-methyl-4-piperidyl)methoxy)-4-quinolyl)oxy)phenyl)-N′-cyclopropylurea]",+,−,−,4.8
"O=C(Nc1ccc(Oc2ncnc3[nH]c(-c4ccccc4)cc23)cc1)Nc1cccc(F)c1 [Example 172, 1-(3-Fluorophenyl)-3-[4-(6-phenyl-7H-pyrrolo[2,3-d]pyrimidin-4-yloxy)phenyl]urea]",+,+/−,+/−,
"COc1ccc(NC(=O)Nc2ccc(Oc3ccnc4cc(OCCOCCO)c(C#N)cc34)cc2)cc1 [Example 72, N-(4-(6-Cyano-7-(2-(2-hydroxyethoxy)ethoxy)-4-quinolyl)oxyphenyl)-N′-(4-methoxyphenyl)urea]",+++,−,−,22
"N#Cc1cc2c(Oc3ccc(NC(=O)Nc4ccc(F)cc4F)c(F)c3)ccnc2cc1OCc1ccccc1 [Example 81, N-(4-(6-Cyano-7-benzyloxy-4-quinolyl)oxy-2-fluorophenyl)-N′-(2,4-difluorophenyl)urea]",++,−,−,1.8
"CCN(CC)CCCOc1cc2nccc(Oc3ccc4c(ccn4C(=O)NC4CC4)c3)c2cc1C#N [Example 298, 5-[6-Cyano-7-(3-diethylaminopropoxy)quinolin-4-yloxy]indole-1-carboxylic acid cyclopropylamide]",+/−,−,−,0.7
"CS(=O)(=O)c1cccc(NC(=O)Nc2ccc(Oc3ccnc4cc(OCCCN5CCOCC5)c(C#N)cc34)cc2)c1 [Example 74, N-(4-(6-Cyano-7-(3-(4-morpholino)propoxy)-4-quinolyl)oxyphenyl)-N′-(3-(methylsulfonyl)phenyl)urea]",++,−,−,5.9
"COc1cc2nccc(Oc3ccc(NC(=O)NC4CC4)c(Cl)c3)c2cc1C(N)=O [Example 368, 4-(3-Chloro-4-(cyclopropylaminocarbonyl)aminophenoxy)-7-methoxy-6-quinolinecarboxamide]",−,−,−,5.4
"COc1cc2nccc(Oc3ccc(NC(=O)NC4CC4)c(Cl)c3)c2cc1C(=O)NCCF [Example 415, N6-(2-Fluoroethyl)-4-(3-chloro-4-(((cyclopropylamino)carbonyl)amino)phenoxy)-7-methoxy-6-quinolinecarboxamide]",+/−,−,−,3.8
"O=C(Nc1cc(Oc2ccc3c(ccn3C(=O)NC3CC3)c2)ccn1)C1CC1 [Example 212, N1-Cyclopropyl-5-({2-[(cyclopropylcarbonyl)amino]-4-pyridyl}oxy)-1H-1-indolecarboxamide]",+/−,−,−,
"COc1cc2nccc(Sc3ccc(NC(=O)Nc4ccc(F)cc4)s3)c2cc1C(N)=O [Example 245, 4-(5-(3-(4-Fluorophenyl)ureido)thiophen-2-ylsulfanyl)-7-methoxyquinoline-6-carboxamide]",+/−,−,−,
